What is called IC50 is the concentration that gives 50% inhibition. What is called EC50 is the midpoint of the concentration-response curve. As usually defined, the Ki is a dissociation constant, usually derived from enzyme kinetics or from competition with a known ligand. Lower therefore signals higher affinity. A word on the bioavailability: it is dose-corrected exposure relative to a reference, in per cent. A lower bioavailability goes with poor availability. What is called Vd is a proportionality between amount in the body and measured concentration, not a real space. For orientation: Emax means the size of the effect at its maximum, as opposed to the concentration needed. As usually defined, the inhibition is the percentage by which the read-out fell short of the control.

Data set [1] addresses T1, Neuronal acetylcholine receptor subunit alpha-7 (Homo sapiens, UniProt P36544). In words: Antagonist activity at alpha7 nAChR assessed as amplitude of acetylcholine evoked currents. In kind it is functional.
Data set [2] concerns the target T2, Neuronal acetylcholine receptor; alpha4/beta2 (Homo sapiens, UniProt P17787+P43681). The data set is described as follows: Antagonist activity at alpha4beta2 nAChR assessed as amplitude of acetylcholine evoked currents. In kind it is functional.
Data set [3] concerns the target Neuronal acetylcholine receptor; alpha3/beta4 (Homo sapiens, UniProt P30926+P32297). The data set is described as follows: Antagonist activity at alpha3beta4 nAChR assessed as amplitude of acetylcholine evoked currents. It counts as functional.
Data set [4] concerns the target T1, Neuronal acetylcholine receptor subunit alpha-7. In words: Agonist activity at human alpha7 nAChR expressed in GH4C1 cells assessed as potentiation of nicotine-induced calcium signal relative to control. In kind it is functional, cell-based. To be noted: GH4-C1.
Data set [5] shares this target. In words: Agonist activity at human alpha7 nAChR expressed in GH4C1 cells assessed as potentiation of nicotine-induced calcium signal. It counts as functional, cell-based, GH4-C1.
The next data set has as its target Cytochrome P450 2D6 (Homo sapiens, UniProt P10635). In words: Inhibition of CYP2D6. It counts as ADME.
The target of data set [6] is T1, Neuronal acetylcholine receptor subunit alpha-7. The data set is described as follows: Binding affinity to alpha7 nAChR.
Data set [7] in a line: Oral bioavailability in mouse. It counts as ADME, organism-based. To be noted: in vivo.
The nature of data set [8]: Oral bioavailability in rat. In kind it is ADME, organism-based. The settings on record: in vivo.
Data set [9] is described as follows: Oral bioavailability in dog. In kind it is ADME, organism-based, Canis lupus familiaris. To be noted: in vivo.
Data set [10] is described as follows: Volume of distribution in mouse. The settings on record: in vivo. In kind it is ADME, organism-based.
The nature of data set [11]: Volume of distribution in rat. In kind it is ADME, organism-based. To be noted: in vivo.
A short description of data set [12]: Volume of distribution in dog. In kind it is ADME, organism-based, Canis lupus familiaris. The settings on record: in vivo.
Data set [13] has as its target T3, Neuronal acetylcholine receptor subunit alpha-7 (Rattus norvegicus, UniProt Q05941). In words: Displacement of [3H]-MLA from alpha7 nAChR in rat brain membranes. In kind it is cell membranes. (In general: Loss of bound radioactivity is the signal in a displacement assay; it reports binding, not function.)
Data set [14] addresses T1, Neuronal acetylcholine receptor subunit alpha-7. The data set is described as follows: Agonist activity at alpha7 nAChR. It counts as functional.
For data set [15], the target named is T2, Neuronal acetylcholine receptor; alpha4/beta2. The data set is described as follows: Binding affinity to alpha4beta2 nAChR. It counts as protein-complex assay.
Data set [16] concerns the target T3, Neuronal acetylcholine receptor subunit alpha-7. In words: Binding affinity to alpha7 nAChR in rat brain membranes. In kind it is cell membranes.
The target of data set [17] is T1, Neuronal acetylcholine receptor subunit alpha-7. In words: Binding affinity to alpha7 nAchR in human frontal cortex membranes. In kind it is cell membranes, Membrane.
Data set [18] has as its target T4, 5-hydroxytryptamine receptor 3A (Homo sapiens, UniProt P46098).
T4 sequence (P46098 whole entry): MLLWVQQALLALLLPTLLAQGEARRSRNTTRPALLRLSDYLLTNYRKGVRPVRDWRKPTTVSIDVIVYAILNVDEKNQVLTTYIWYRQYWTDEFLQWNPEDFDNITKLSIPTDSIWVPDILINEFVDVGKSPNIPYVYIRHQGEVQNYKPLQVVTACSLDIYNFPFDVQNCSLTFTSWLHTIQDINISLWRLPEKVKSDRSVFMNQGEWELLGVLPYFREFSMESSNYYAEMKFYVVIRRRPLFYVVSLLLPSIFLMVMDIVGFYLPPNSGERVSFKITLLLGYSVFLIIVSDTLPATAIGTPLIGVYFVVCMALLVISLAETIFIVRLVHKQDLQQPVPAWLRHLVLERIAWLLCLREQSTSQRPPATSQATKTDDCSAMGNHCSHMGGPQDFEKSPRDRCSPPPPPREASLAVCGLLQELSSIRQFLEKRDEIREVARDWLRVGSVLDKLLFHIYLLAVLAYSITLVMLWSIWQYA
In words: Displacement of [3H]-BRL-43694 from human 5HT3 receptor.

Data set [19] concerns the target Neuronal acetylcholine receptor subunit alpha-7 (Rattus norvegicus) (UniProt Q05941). In words: Agonist activity at rat alpha7 nAchR expressed in Xenopus oocyte relative to acetylcholine. In kind it is functional.
The target in data set [20] is T1, Neuronal acetylcholine receptor subunit alpha-7. The data set is described as follows: Agonist activity at human alpha7 nAChR expressed in Xenopus oocytes relative to acetylcholine. In kind it is functional, cell-based. To be noted: Oocyte.
Data set [21] has as its target T5, 5-hydroxytryptamine receptor 3A (Homo sapiens) (UniProt P46098).
T5 sequence (whole entry): T4 sequence (P46098 whole entry)
The data set is described as follows: Binding affinity to human 5HT3 receptor at 10 uM by radioligand binding assay.

Data set [22] deals with T1, Neuronal acetylcholine receptor subunit alpha-7. In words: Agonist activity at human alpha7 nAChR expressed in Xenopus oocyte. It counts as functional.
Data set [23] shares this target. The data set is described as follows: Displacement of [3H]-MLA from alpha7 nAChR.
Data set [24] addresses T3, Neuronal acetylcholine receptor subunit alpha-7. In words: Agonist activity at rat alpha7 nAchR expressed in Xenopus oocyte. In kind it is functional.
Data set [25] shares this target. In words: Displacement of [3H]A-585539 from alpha7 nAChR rat cortex.
The target of data set [26] is T1, Neuronal acetylcholine receptor subunit alpha-7. In words: Displacement of [3H]A-585539 from alpha7 nAChR human cortex.

T3 sequence (Q05941 whole entry): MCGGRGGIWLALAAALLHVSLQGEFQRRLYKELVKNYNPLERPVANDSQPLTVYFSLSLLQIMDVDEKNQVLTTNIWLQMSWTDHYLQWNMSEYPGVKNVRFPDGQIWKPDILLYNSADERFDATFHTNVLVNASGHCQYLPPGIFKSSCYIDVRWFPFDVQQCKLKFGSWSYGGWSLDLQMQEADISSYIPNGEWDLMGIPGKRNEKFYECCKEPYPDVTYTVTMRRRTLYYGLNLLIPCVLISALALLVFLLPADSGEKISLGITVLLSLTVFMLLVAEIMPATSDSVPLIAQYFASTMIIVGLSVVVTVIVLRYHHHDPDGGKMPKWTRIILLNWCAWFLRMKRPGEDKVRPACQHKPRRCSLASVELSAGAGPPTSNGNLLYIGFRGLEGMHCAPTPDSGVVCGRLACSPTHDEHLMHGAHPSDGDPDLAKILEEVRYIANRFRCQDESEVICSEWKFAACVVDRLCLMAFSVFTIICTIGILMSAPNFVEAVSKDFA
T1 sequence (P36544 whole entry): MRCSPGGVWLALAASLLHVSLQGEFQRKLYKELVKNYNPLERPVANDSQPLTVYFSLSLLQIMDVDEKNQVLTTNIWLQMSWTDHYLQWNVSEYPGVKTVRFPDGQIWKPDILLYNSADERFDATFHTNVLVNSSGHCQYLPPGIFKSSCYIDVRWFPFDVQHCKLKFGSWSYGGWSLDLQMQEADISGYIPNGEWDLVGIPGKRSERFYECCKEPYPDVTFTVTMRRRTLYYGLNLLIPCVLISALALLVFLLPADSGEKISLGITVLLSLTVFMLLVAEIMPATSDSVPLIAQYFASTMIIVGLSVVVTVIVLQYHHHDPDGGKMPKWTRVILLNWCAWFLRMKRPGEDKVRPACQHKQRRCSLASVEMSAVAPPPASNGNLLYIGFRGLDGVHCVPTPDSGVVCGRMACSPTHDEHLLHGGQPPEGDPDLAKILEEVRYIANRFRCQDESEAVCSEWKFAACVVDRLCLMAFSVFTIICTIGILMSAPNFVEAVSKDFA
T2 sequence (P17787 whole entry): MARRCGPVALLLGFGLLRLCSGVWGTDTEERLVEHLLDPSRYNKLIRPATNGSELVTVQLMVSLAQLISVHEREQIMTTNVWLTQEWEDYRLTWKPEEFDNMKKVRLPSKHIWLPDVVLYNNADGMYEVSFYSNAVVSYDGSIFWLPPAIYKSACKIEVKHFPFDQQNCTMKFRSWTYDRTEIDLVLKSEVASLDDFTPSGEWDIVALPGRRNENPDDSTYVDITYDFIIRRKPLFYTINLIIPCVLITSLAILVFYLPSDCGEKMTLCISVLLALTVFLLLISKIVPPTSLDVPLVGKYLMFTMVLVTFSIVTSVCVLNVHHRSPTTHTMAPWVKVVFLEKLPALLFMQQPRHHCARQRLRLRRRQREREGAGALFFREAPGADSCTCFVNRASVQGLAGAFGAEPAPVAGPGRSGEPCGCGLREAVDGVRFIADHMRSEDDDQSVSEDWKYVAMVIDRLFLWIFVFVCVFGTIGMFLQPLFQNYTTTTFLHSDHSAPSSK
T2 sequence (P43681 whole entry): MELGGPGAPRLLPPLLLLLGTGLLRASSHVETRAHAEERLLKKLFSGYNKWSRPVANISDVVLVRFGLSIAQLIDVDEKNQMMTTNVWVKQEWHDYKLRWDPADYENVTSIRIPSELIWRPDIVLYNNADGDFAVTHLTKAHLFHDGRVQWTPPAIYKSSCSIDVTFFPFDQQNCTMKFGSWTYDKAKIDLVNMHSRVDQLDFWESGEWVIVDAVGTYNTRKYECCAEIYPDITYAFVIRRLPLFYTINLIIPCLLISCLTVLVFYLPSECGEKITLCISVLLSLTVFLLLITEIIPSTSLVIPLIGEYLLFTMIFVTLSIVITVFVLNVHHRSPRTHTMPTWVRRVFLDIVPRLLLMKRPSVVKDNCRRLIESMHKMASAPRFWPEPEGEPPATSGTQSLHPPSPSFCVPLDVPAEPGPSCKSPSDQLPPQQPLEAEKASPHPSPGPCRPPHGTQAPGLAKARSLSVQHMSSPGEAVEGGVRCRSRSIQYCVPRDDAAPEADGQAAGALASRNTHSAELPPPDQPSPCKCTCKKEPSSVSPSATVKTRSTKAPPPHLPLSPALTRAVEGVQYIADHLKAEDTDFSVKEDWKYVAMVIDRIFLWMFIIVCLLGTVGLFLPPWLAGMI
Chain of Neuronal acetylcholine receptor; alpha3/beta4 (P30926 whole entry): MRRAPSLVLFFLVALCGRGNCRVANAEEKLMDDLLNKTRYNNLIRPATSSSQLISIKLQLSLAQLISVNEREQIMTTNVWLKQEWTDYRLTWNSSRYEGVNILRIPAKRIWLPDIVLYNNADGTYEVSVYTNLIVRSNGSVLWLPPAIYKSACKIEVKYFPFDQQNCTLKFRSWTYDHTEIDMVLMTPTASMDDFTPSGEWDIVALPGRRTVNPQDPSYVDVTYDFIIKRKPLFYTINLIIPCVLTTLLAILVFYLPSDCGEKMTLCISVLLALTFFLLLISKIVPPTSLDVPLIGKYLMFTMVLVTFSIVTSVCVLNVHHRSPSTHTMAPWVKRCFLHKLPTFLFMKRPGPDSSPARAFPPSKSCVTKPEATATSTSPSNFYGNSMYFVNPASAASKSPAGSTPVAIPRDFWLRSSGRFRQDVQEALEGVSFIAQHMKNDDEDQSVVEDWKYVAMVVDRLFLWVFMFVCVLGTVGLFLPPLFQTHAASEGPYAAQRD
Chain of Neuronal acetylcholine receptor; alpha3/beta4 (P32297 whole entry): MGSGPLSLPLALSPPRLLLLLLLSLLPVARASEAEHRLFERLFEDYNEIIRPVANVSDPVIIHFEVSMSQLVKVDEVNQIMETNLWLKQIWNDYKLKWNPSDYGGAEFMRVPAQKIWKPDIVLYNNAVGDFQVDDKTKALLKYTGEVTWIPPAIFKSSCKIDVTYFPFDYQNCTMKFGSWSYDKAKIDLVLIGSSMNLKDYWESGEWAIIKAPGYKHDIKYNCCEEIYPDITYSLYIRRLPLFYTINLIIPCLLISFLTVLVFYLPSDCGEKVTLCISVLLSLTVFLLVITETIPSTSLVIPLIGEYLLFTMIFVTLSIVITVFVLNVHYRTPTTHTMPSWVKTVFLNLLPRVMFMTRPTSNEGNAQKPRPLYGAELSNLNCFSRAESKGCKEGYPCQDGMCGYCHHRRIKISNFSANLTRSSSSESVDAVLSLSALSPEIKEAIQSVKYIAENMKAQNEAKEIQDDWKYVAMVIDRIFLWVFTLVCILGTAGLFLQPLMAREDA
Chain of Neuronal acetylcholine receptor subunit alpha-7 (Rattus norvegicus) (Q05941 whole entry): as the sequence (Q05941 whole entry) above
Chain of Cytochrome P450 2D6 (P10635 whole entry): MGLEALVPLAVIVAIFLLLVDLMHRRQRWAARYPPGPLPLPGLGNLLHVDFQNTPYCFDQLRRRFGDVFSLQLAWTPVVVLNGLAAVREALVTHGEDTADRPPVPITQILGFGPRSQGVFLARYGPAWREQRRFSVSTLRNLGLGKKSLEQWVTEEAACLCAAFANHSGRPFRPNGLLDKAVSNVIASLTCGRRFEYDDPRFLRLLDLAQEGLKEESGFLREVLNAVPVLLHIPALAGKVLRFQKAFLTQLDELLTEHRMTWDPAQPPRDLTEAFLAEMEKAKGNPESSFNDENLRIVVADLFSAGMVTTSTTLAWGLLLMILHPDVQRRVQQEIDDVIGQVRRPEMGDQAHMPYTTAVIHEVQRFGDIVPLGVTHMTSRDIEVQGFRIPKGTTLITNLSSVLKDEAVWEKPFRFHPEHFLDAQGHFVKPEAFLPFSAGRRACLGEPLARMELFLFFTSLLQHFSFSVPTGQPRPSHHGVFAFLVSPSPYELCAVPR

For the compound `C=CC[C@@H]1CC[C@@H](CC)[C@@H]2CCCCN12`, the concentration for half-maximal inhibition (IC50) was 600 nM in data set [1], 5200 nM in data set [2] and 8800 nM in data set [3].

`Cn1ccc2cc3c(cc21)CCN3C(=O)Nc1cccnc1`: in data set [4], the fold change (FC) was 8. For the same compound, in data set [5], the EC50 was 1500 nM.

With `O=C1O[C@]2(CN3CCC2CC3)CN1c1ccc2sccc2c1`, the IC50 against Cytochrome P450 2D6 was > 30000 nM. The compound further came in with an inhibitory constant (Ki) in data set [6] of 28 nM.

`CN1CC2CN(c3ccc(-c4ccccc4)nn3)CC2C1` (configuration not stated): the results for the bioavailability in data set [7], in data set [8] and in [9] were 100%, 90% and 22%, respectively. The Vd in data set [10], in data set [11] and in data set [12] was 4 L/kg each time. The inhibition constant (Ki) in [13] was 88 nM; in data set [15], > 100000 nM; in data set [16] it was 10.8 nM; in [17], 17 nM; in data set [18], 150 nM. In data set [14], this compound showed a concentration giving a half-maximal response (EC50) of 4260 nM.

For `c1cc2cc(-c3ccc(O[C@H]4CN5CCC4CC5)nn3)ccc2[nH]1` [ABT-107], the Emax in data set [19] and in data set [20] was 80% in each case. The inhibition in [21] amounted to 4%. Further, the concentration giving a half-maximal response (EC50) in [22] and in data set [24] was 50 nM throughout. Besides, the Ki in data set [23] was 7 nM; in data set [25] it was 0.2 nM; in data set [26], 0.2 nM.

For the origin of these results see ChEMBL document CHEMBL2151039, “Discovery and development of α7 nicotinic acetylcholine receptor modulators” (J Med Chem, 2011).
